Measurements taken from ChEMBL document CHEMBL1140749, “Novel copper(II) complex of N-propyl-norfloxacin and 1,10-phenanthroline with enhanced antileukemic and DNA nuclease activities” (2008).
Converted amounts (≈) assume the structure as drawn.

Assays:
Assay type in all cases: functional
Escherichia coli = experiment: Antibacterial activity against Escherichia coli
Pseudomonas aeruginosa = experiment: Antibacterial activity against Pseudomonas aeruginosa
Staphylococcus aureus = experiment: Antibacterial activity against Staphylococcus aureus

| Structure (SMILES) | MIC (Escherichia coli) [µg/mL] | MIC (Pseudomonas aeruginosa) [µg/mL] | MIC (Staphylococcus aureus) [µg/mL] |
| --- | --- | --- | --- |
| c1cnc2c(c1)ccc1cccnc12 [PHENANTHROLINE] | 32 (≈ 178 µM) | 32 (≈ 178 µM) | 32 (≈ 178 µM) |
| CCn1cc(C(=O)O)c(=O)c2cc3c(cc21)OCO3 [OXOLINIC ACID] | 1 (≈ 3.83 µM) | 16 (≈ 61.2 µM) | 16 (≈ 61.2 µM) |
| c1ccc(-c2ccccn2)nc1 [DIPYRIDYL] | 256 (≈ 1640 µM) | 256 (≈ 1640 µM) | 256 (≈ 1640 µM) |

More lines, in order of falling MIC (Escherichia coli), values ahead:

| MIC (Escherichia coli) [µg/mL] | MIC (Pseudomonas aeruginosa) [µg/mL] | MIC (Staphylococcus aureus) [µg/mL] | Structure (SMILES) |
| --- | --- | --- | --- |
| 4 (≈ 11.1 µM) | 4 (≈ 11.1 µM) | 16 (≈ 44.3 µM) | CCCN1CCN(c2cc3c(cc2F)c(=O)c(C(=O)O)cn3CC)CC1 |
| 1 (≈ 2.78 µM) | 1 (≈ 2.78 µM) | 8 (≈ 22.3 µM) | CCN1CCN(c2cc3c(cc2F)c(=O)c(C(=O)O)cn3C2CC2)CC1 [ENROFLOXACIN] |
